Source: US20220298146A1, “HETEROCYCLIC DERIVATIVE AND USE THEREOF” (Transthera Sciences (Nanjing), Inc., priority 2019, published 2022)

Experiments:
[1] = target: T1, Mer (h) (Homo sapiens, UniProt Q12866); experiment: Enzymatic activity assay, Mer (h) kinase, [γ-33P]-ATP; assay type: biochemical; details: 10 μM [γ-33P]-ATP, 40 min, room temperature; read-out: Inhibitory Activity on Mer (h), IC50
T1 construct: purchased
T1 sequence (Q12866 21-999): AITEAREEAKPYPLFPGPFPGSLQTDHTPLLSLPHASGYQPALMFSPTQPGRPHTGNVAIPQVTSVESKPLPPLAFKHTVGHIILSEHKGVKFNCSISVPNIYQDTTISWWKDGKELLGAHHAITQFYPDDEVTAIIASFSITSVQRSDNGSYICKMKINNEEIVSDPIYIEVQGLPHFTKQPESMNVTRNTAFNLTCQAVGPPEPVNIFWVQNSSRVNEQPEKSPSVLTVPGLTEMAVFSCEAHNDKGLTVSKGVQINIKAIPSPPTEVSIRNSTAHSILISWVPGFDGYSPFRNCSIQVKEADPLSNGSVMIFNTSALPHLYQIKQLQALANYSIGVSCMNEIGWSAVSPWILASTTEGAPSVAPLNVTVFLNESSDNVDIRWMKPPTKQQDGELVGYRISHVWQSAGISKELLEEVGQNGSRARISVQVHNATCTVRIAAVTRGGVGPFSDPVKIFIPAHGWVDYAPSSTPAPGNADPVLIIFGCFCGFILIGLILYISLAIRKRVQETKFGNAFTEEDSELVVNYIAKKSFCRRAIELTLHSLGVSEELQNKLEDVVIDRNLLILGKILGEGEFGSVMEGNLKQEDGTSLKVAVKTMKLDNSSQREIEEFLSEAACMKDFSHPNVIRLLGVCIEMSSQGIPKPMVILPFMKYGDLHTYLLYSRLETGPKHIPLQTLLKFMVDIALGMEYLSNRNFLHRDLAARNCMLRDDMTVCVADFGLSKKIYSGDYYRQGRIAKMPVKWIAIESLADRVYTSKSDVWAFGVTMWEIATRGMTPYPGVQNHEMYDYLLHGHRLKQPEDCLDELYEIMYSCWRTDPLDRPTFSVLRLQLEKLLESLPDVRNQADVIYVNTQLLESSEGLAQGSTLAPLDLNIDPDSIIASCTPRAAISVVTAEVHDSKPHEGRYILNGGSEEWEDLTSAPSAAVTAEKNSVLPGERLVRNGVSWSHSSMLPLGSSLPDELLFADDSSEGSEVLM
Procedure: (§1) Test samples: the compounds of the present invention, having structures and preparation methods shown above.
(§2) (1) Preparation of Compound Stock Solutions
(§3) Compounds were each dissolved in 100% DMSO to prepare stock solutions with a maximum concentration of 500 μM.
(§4) (2) Preparation of Compound Working Solutions
(§5) The compound stock solutions were diluted to final concentrations of 500 μM, 150 μM, 50 μM, 15 μM, 5 μM, 1.5 μM, 0.5 μM, 0.15 μM and 0.05 μM to prepare compound working solutions (50×).
(§6) (3) Preparation of different enzymatic reaction solutions
Mer (h) enzyme was dissolved in a mixture of 8 mM MOPS (pH 7.0), 0.2 mM EDTA, 30 mM NaCl and 250 μM GGMEDIYFEFMGGKKK to prepare an enzyme solution with a final concentration of 3.1 nM. An Mg/ATP mixture of 10 mM magnesium acetate and 10 μM [γ-^33P]-ATP was used to activate the enzymatic reaction.
(§7) The compound working solutions were added to a 384-well plate, with final concentrations of 10000 nM, 3000 nM, 1000 nM, 300 nM, 100 nM, 30 nM, 10 nM, 3 nM and 1 nM, respectively, and then different enzymatic reaction solutions prepared according to the above conditions were added. The reaction solutions were incubated at room temperature for 40 min, and then 0.5% phosphoric acid solutions were added to terminate the reaction. 10 μL of the reaction solution was added dropwise to P30 filter paper which was washed 4 times with a 0.425% phosphoric acid solution and once with methanol and then placed in a scintillation counter for detection. Gray analysis was performed on the results with Image J software, and IC50 values were calculated with GraphPad 5.0 software.

[2] = target: T2, Axl (h) (Homo sapiens, UniProt P30530); experiment: Enzymatic activity assay, Axl (h) kinase, [γ-33P]-ATP; assay type: biochemical; details: 10 μM [γ-33P]-ATP, 40 min, room temperature; read-out: Inhibitory Activity on Ax1 (h), IC50
T2 construct: purchased
T2 sequence (P30530 26-894): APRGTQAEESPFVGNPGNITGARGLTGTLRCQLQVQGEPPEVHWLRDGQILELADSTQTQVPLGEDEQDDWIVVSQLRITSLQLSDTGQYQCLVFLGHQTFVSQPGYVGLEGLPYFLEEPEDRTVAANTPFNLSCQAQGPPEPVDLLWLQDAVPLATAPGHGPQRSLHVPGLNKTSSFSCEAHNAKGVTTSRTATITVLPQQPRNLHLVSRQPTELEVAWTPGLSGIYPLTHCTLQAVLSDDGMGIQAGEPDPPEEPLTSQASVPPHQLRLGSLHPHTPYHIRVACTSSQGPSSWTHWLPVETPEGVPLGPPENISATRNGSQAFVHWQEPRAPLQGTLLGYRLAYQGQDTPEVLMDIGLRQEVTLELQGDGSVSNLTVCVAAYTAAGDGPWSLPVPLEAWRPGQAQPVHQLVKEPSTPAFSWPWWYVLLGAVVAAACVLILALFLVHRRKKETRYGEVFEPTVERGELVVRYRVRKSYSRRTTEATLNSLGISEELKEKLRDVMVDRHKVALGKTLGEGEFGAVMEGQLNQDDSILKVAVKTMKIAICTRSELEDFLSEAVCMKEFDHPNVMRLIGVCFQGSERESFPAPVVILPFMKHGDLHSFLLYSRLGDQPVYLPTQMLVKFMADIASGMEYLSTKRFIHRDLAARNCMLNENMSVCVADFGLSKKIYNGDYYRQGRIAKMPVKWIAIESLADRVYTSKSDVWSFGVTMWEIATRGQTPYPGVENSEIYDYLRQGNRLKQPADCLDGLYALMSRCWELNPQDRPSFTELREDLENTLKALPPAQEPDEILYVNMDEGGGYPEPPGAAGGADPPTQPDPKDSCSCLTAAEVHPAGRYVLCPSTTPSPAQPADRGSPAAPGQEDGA
Procedure: as §1, §2, §3, §4, §5, §6
Axl (h) enzyme was dissolved in a mixture of 8 mM MOPS (pH 7.0), 0.2 mM EDTA and 250 μM KKSRGDYMTMQIG to prepare an enzyme solution with a final concentration of 1.7 nM. An Mg/ATP mixture of 10 mM magnesium acetate and 10 μM [γ-^33P]-ATP was used to activate the enzymatic reaction.
as §7

With `CC(C)n1cc(-c2ccc(F)cc2)c(=O)c(C(=O)Nc2ccc(Oc3ccnc(N)c3Cl)cn2)n1` [Compound 11, N-(5-((2-amino-3-chloropyridin-4-yl)oxy)pyridin-2-yl)-5-(4-fluorophenyl)-1-isopropyl-4-oxo-1,4-dihydropyridazine-3-carboxamide] as the molecule, how does the IC50 [1] read?
The IC50 was 9 nM.

And the IC50 [2]?
The IC50 was 6 nM.

`CC(C)n1cc(-c2ccc(F)cc2)c(=O)c(C(=O)Nc2ncc(Oc3ccnc(N)c3Cl)cn2)n1` [Compound 12, N-(5-((2-amino-3-chloropyridin-4-yl)oxy)pyrimidin-2-yl)-5-(4-fluorophenyl)-1-isopropyl-4-oxo-1,4-dihydropyridazine-3-carboxamide] was tested. Which IC50 [1] did it give?
The IC50 was 8 nM.

What about the IC50 [2] of the same molecule?
Its IC50 is 23 nM.

How did the IC50 [1] turn out when `CC(C)n1cc(-c2ccc(F)cc2)c(=O)c(C(=O)Nc2ccc(Oc3ccnc(N)c3Cl)nc2)n1` [Compound 13, N-(6-((2-amino-3-chloropyridin-4-yl)oxy)pyridin-3-yl)-5-(4-fluorophenyl)-1-isopropyl-4-oxo-1,4-dihydropyridazine-3-carboxamide] was run?
Its IC50 is 8 nM.

And the IC50 [2]?
The IC50 was 9 nM.

Which IC50 [1] does the source give for `Nc1nccc(Oc2ccc(NC(=O)c3nn(C4CC4)cc(-c4ccc(F)cc4)c3=O)nc2)c1Cl` [Compound 17, N-(5-((2-amino-3-chloropyridin-4-yl)oxy)pyridin-2-yl)-1-cyclopropyl-5-(4-fluorophenyl)-4-oxo-1,4-dihydropyridazine-3-carboxamide] here?
The IC50 was 2 nM.

What about the IC50 [2] of the same molecule?
The IC50 was 9 nM.

What does the source list for `Nc1nccc(Oc2cnc(NC(=O)c3nn(C4CC4)cc(-c4ccc(F)cc4)c3=O)nc2)c1Cl` [Compound 18, N-(5-((2-amino-3-chloropyridin-4-yl)oxy)pyrimidin-2-yl)-5-(4-fluorophenyl)-1-cyclopropyl-4-oxo-1,4-dihydropyridazine-3-carboxamide]?
IC50 [1]: 6 nM; IC50 [2]: 8 nM

What does the source list for `Nc1nccc(Oc2ccc(NC(=O)c3nn(C4CC4)cc(-c4ccc(F)cc4)c3=O)cn2)c1Cl` [Compound 19, N-(6-((2-amino-3-chloropyridin-4-yl)oxy)pyridin-3-yl)-1-cyclopropyl-5-(4-fluorophenyl)-4-oxo-1,4-dihydropyridazine-3-carboxamide]?
IC50 [1]: 18 nM; IC50 [2]: 12 nM

What does the source list for `Cn1cc(-c2ccc(F)cc2)c(=O)c(C(=O)Nc2ccc(Oc3ccnc(N)c3Cl)cn2)n1` [Compound 33, N-(5-((2-amino-3-chloropyridin-4-yl)oxy)pyridin-2-yl)-5-(4-fluorophenyl)-1-methyl-4-oxo-1,4-dihydropyridazine-3-carboxamide]?
IC50 [1]: 3 nM; IC50 [2]: 12 nM

For `C=CCn1cc(-c2ccc(F)cc2)c(=O)c(C(=O)Nc2ccc(Oc3ccnc(N)c3Cl)cn2)n1` [Compound 35, 1-allyl-N-(5-((2-amino-3-chloropyridin-4-yl)oxy)pyridin-2-yl)-5-(4-fluorophenyl)-4-oxo-1,4-dihydropyridazine-3-carboxamide], which IC50 [1] is on record?
Its IC50 is 4 nM.

And the IC50 [2]?
Its IC50 is 4 nM.

Which results are given for `C=CCn1cc(-c2ccc(F)cc2)c(=O)c(C(=O)Nc2ncc(Oc3ccnc(N)c3Cl)cn2)n1` [Compound 37]?
IC50 [1]: 7 nM; IC50 [2]: 9 nM

How did the IC50 [1] turn out when `C=CCn1cc(-c2ccc(F)cc2)c(=O)c(C(=O)Nc2ccc(Oc3ccnc(N)c3Cl)nc2)n1` [Compound 39, 1-allyl-N-(6-((2-amino-3-chloropyridin-4-yl)oxy)pyridin-3-yl)-5-(4-fluorophenyl)-4-oxo-1,4-dihydropyridazine-3-carboxamide] was run?
Its IC50 is 3 nM.

And the IC50 [2]?
The IC50 was 12 nM.
